# According to patent US10301355B2, “Method of using pharmaceutical compositions comprising selective peptide-based agonists of melanocortin 1 receptor” (University of Cincinnati, priority 2012, dated 2019):
# Tests used:
# human melanocytes = test: Potency in human melanocytes; format: cell-based
# mouse MCRs = conditions: cited from earlier work
substance,measurement,setting,value
trans-4-HOC6H4CH═CHCO-His-D-Phe-Arg-NH2,potency in human melanocytes,human melanocytes,less potent in human melanocytes
same,MC1R selectivity and potency compared to tripeptide LK-394,mouse MCRs,moderately increased MC1R selectivity and potency
